Columns and labels:
[1] = mn = molality of the nth substance listed, in mol/kg; details: 75 kPa, Liquid; for viscosity: Capillary tube (Ostwald / Ubbelohde) method; for speed of sound: Frequency=3 MHz, Sing-around technique in a fixed-path interferometer; for mass density: Vibrating tube method
[2] = 75 kPa, Liquid; for viscosity: Capillary tube (Ostwald / Ubbelohde) method

[Cl-].[Na+] [sodium chloride] + O
[1]
Details	mass density [kg/m3]	speed of sound [m/s]	viscosity [mPa·s]
293.15 K, m1 = 0.1502	1004.43	1492.5	1.011
293.15 K, m1 = 0.3004	1010.4	1502	1.018
293.15 K, m1 = 0.5002	1018.11	1514.4	1.034
293.15 K, m1 = 0.7001	1026.19	1526.9	1.059
298.15 K, m1 = 0.1502	1003.21	1506.2	0.891
298.15 K, m1 = 0.3004	1008.89	1515.3	0.908
298.15 K, m1 = 0.5002	–	1527.3	0.933
298.15 K, m1 = 0.7001	1024.85	1539.2	0.95
303.15 K, m1 = 0.1502	1001.74	1518.1	0.791
303.15 K, m1 = 0.3004	1007.39	1527	0.814
303.15 K, m1 = 0.5002	1015.58	1538.6	0.835
303.15 K, m1 = 0.7001	1023.12	1550.2	0.852
308.15 K, m1 = 0.1502	1000.1	–	0.712
308.15 K, m1 = 0.3004	1005.86	1537.1	0.738
308.15 K, m1 = 0.5002	–	1548.3	0.755
308.15 K, m1 = 0.7001	1021.53	1559.5	0.768
313.15 K, m1 = 0.1502	998.234	1537.6	0.645
313.15 K, m1 = 0.3004	1004.13	1545.7	0.665
313.15 K, m1 = 0.5002	1011.76	1556.5	0.687
313.15 K, m1 = 0.7001	–	1567.3	0.701

O [water]
[2]
Details	viscosity [mPa·s]
293.15 K	1.003
298.15 K	0.89
303.15 K	0.798
308.15 K	0.72
313.15 K	0.653

Details	speed of sound [m/s]
[2], 313.15 K, Frequency=3 MHz, Sing-around technique in a fixed-path interferometer	1529

O [water] + CCC(N)C(=O)O
[1], m2 = 0
Details	mass density [kg/m3]	speed of sound [m/s]	viscosity [mPa·s]
293.15 K	–	–	1.003
298.15 K	–	–	0.89
303.15 K	–	–	0.798
308.15 K	994.063	–	0.72
313.15 K	–	1529	0.653

O [water] + [Cl-].[Na+]
[1], m2 = 0
Details	mass density [kg/m3]	speed of sound [m/s]	viscosity [mPa·s]
293.15 K	–	–	1.003
298.15 K	–	–	0.89
303.15 K	–	–	0.798
308.15 K	994.063	–	0.72
313.15 K	–	1529	0.653
